Converted amounts (≈) assume the structure as drawn. “Also recorded” adds a separate entry of the source. Read-outs that look alike come from different tables or passages of the source.
Tests used:
[1] = Mouse tolerability (non-GLP oral single dose / MTD study); format: in vivo
Experimental: ONC212 25 mg/kg represents NOAEL in mouse and rat non-GLP oral single dose studies which is also the efficacious dose in mouse xenograft studies. […].
Dual targeting of DRD2/3 and GPR132/91 represents a novel strategy for anti-cancer efficacy without toxicity. […] […]. […] […].

[2] = system: human fetal lung fibroblast (MRC-5) cells; conditions: MRC5; nanomolar concentrations (FIG. 22)
[3] = system: DRD2 (short and long isoforms); test: β-arrestin recruitment GPCR reporter assay, DRD2; format: cell-based
[4] = system: human colon cancer xenograft; test: Human colon cancer xenograft in mice; format: in vivo; conditions: single dose, oral or intraperitoneal (FIG. 24)
[5] = system: MRC5 lung fibroblasts and Hs27a bone marrow cells; test: Cell viability of normal cells treated with ONC212; format: cell-based; conditions: 5 nM-5 μM, 72 h (FIG. 29B)
MOLM14 AML cells = test: Cell viability, MOLM14 AML cells; format: cell-based
GPR132 = target: T1, GPR132 (Homo sapiens, UniProt Q9UNW8); test: β-arrestin recruitment GPCR reporter assay, GPR132; format: cell-based
T1 sequence (Q9UNW8 1-380): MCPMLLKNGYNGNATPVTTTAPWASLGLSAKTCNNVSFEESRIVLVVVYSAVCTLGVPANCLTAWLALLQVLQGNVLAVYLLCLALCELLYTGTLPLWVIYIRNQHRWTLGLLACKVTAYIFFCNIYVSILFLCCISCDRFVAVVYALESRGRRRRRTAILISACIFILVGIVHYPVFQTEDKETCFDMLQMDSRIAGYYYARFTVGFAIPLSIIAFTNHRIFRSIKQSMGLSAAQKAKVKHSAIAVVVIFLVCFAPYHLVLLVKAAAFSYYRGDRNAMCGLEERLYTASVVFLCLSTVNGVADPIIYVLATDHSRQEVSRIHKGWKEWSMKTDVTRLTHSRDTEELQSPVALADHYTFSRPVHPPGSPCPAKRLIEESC

HCT116 cells = test: Anticancer efficacy in HCT116 cells; format: cell-based, human
[6] = system: Staphylococcus aureus ATCC 29213; test: MIC by micro-broth dilution, S. aureus ATCC 29213; format: cell-based; conditions: ATCC29213; for MIC90: read-out: MIC90; for MIC99: read-out: MIC99
[7] = Rat non-GLP oral single dose study; format: in vivo
MV411 AML xenograft = MV411 AML xenograft model; format: in vivo, athymic nude mice
HL60 = test: Cell viability, HL60 AML cell line; format: cell-based; conditions: Homo sapiens, HL-60, 72 h
[8] = system: NCI60 cancer cell line panel; test: NCI60 cancer cell line panel; format: cell-based; conditions: NCI60 panel (FIG. 16)
[9] = system: Staphylococcus aureus ATCC 33591; test: MIC by micro-broth dilution, S. aureus ATCC 33591; format: cell-based; conditions: ATCC33591; for MIC90: read-out: MIC90; for MIC99: read-out: MIC99
[10] = system: Staphylococcus aureus ATCC 700699; test: MIC by micro-broth dilution, S. aureus ATCC 700699; format: cell-based; conditions: Staphylococcus aureus, ATCC700699, ATCC 700699 (48 hours); for MIC90: read-out: MIC90; for MIC99: read-out: MIC99
MV411 AML cells = test: Cell viability, MV411 AML cells; format: cell-based
leukemia cell lines = test: Anti-cancer efficacy in leukemia cell lines; format: cell-based; conditions: 55 leukemia cell lines regardless of subtype (FIG. 26)
HFF (Normal Fibroblast) = test: Cell viability, HFF normal fibroblasts
[11] = system: MHH-ES-1 (Ewing's sarcoma); test: Cell viability, MHH-ES-1; format: cell-based; conditions: Homo sapiens, 5 nM-5 μM, 72 h, n=3
[12] = system: Ewing's sarcoma cell lines; test: Anti-cancer efficacy in Ewing's sarcoma cell lines; format: cell-based; conditions: 16 Ewing's sarcoma cell lines (FIG. 20)
human cancer cells = test: Viability of human cancer cells at 72 hours post-treatment; format: cell-based; conditions: relative to the potency of ONC201; viability of human cancer cells at 72 hours post-treatment
K562 (CML) = test: Cell viability, K562; format: cell-based; conditions: Homo sapiens, 5 nM-5 μM, 72 h, n=3
[13] = wild type Staphylococcus aureus (ATCC 29213), read-out: MIC
[14] = Staphylococcus aureus, ATCC 29213, 24 hours
[15] = Staphylococcus aureus, ATCC 29213, 24 hours, read-out: MIC95
[16] = Staphylococcus aureus, ATCC 29213, 24 hours, read-out: MIC, Visual
[17] = Staphylococcus aureus (ATCC 33591), methicillin resistant, read-out: MIC
[18] = Staphylococcus aureus, ATCC 33591, 24 hours
[19] = Staphylococcus aureus, ATCC 33591, 24 hours, read-out: MIC95
[20] = Staphylococcus aureus, ATCC 33591, 24 hours, read-out: MIC, Visual

SMILES | GPCR activity, DRD2 [3] | MIC [6, 13] [µg/mL] | MIC90 [6, 14] [µg/mL] | MIC [6, 15] [µg/mL] | MIC99 [6, 14] [µg/mL] | MIC [6, 16] [µg/mL] | anti-cancer efficacy across tumor types [8] | MIC [9, 17] [µg/mL] | MIC90 [9, 18] [µg/mL] | MIC [9, 19] [µg/mL] | MIC99 [9, 18] [µg/mL] | MIC [9, 20] [µg/mL] | MIC90 [10] [µg/mL] | MIC ([10]; read-out: MIC95) [µg/mL] | MIC99 [10] [µg/mL] | MIC ([10]; read-out: MIC, Visual) [µg/mL] | also measured
O=C1C2=C(CCN(Cc3ccccc3)C2)N2CCN=C2N1Cc1ccc(C(F)(F)F)cc1 [ONC212] | does not engage DRD2 | 3.13 (≈ 7.11 µM) | 3.13 (≈ 7.11 µM) | 3.13 (≈ 7.11 µM) | 3.13 (≈ 7.11 µM) | 3.12 (≈ 7.09 µM) | demonstrated anti-cancer efficacy | 3.13 (≈ 7.11 µM) | 3.13 (≈ 7.11 µM) | 6.25 (≈ 14.2 µM) | 100 (≈ 227 µM) | 3.12 (≈ 7.09 µM) | 6.25 (≈ 14.2 µM) | 12.5 (≈ 28.4 µM) | 12.5 (≈ 28.4 µM) | 12.5 (≈ 28.4 µM) | NOAEL ([1]; in vivo, mouse, non-GLP oral single dose study / MTD study): 25 mg/kg; well tolerated dose ([1]; mice): ≥ 225 mg/kg; cell death in normal cells [2]: not normal cells; tumor volume compared to vehicle-treated control [4]: significant reduction of tumor volume; toxicity to normal cells [5]: non-toxic to normal cells at efficacious concentrations; cell viability after 8 hr exposure (MOLM14 AML cells; ONC212 at 250 nM, viability determined at 96 h (FIG. 29C)): robust reduction in cell viability; GPCR activity, GPR132 (GPR132): highly selective agonist; cell death in cancer cells (HCT116 cells; HCT116, nanomolar concentrations (FIG. 22)): induced cell death; IC50 (HCT116 cells; Homo sapiens, HCT-116, HCT116 cells): 10 nM; NOAEL ([7]; rat, in vivo, po): 25 mg/kg; body weight loss or gross observations (MV411 AML xenograft; all ONC212 regimens (FIG. 30C)): None of these ONC212 administration regimens were associated with body weight loss; leukemia xenograft tumor growth (MV411 AML xenograft; biweekly dosing with 25 mg/kg, oral (FIG. 30B)): not efficacious; leukemia xenograft tumor growth (MV411 AML xenograft; oral weekly administration, ONC212 50 mg/kg, ONC201 at similar doses (FIG. 30A)): significantly reduced; leukemia xenograft tumor growth (MV411 AML xenograft; weekly/biweekly dosing with 5 mg/kg, oral (FIG. 30B)): not efficacious; IC50 (HL60): 210 nM; fold more potent compared to ONC201 (MV411 AML cells; AML cell lines in vitro (Table 11)): up to 400 fold; efficacy in AML cells resistant to standard of care cytarabine (MV411 AML cells; MV411, 5 nM-5 μM, 24 h (FIG. 29A)): efficacious; cell viability after 8 hr exposure (MV411 AML cells; MV411, ONC212 at 250 nM, viability determined at 96 h (FIG. 29C)): robust reduction in cell viability; anti-cancer efficacy (leukemia cell lines): nanomolar range
O=C1C2=C(CCN(Cc3ccccc3)C2)N2CCN=C2N1Cc1ccc(F)cc1F [ONC206] | improved DRD2 antagonism | 6.25 (≈ 15.3 µM) | 6.25 (≈ 15.3 µM) | 6.25 (≈ 15.3 µM) | 6.25 (≈ 15.3 µM) | 6.25 (≈ 15.3 µM) | demonstrated anti-cancer efficacy | 12.5 (≈ 30.6 µM) | 12.5 (≈ 30.6 µM) | 25 (≈ 61.2 µM) | > 100 | 12.5 (≈ 30.6 µM) | 12.5 (≈ 30.6 µM) | 12.5 (≈ 30.6 µM) | 25 (≈ 61.2 µM) | 12.5 (≈ 30.6 µM) | IC50 (MOLM14 AML cells; Homo sapiens, MOLM-14, 5 nM-5 μM, 72 h, n=3): 270 nM; IC50 (HFF (Normal Fibroblast); Homo sapiens, Fibroblast, 72 h): > 5000 nM; in vitro toxicity to normal cells (HFF (Normal Fibroblast); Table 12): no in vitro toxicity to normal cells at therapeutic doses; IC50 [11]: 610 nM; NOAEL ([7]; rat non-GLP oral single dose study): 125 mg/kg; anti-cancer efficacy [12]: nanomolar range in 14 out of 16; also recorded: superior efficacy compared to ONC201 in all cell lines; Relative Potency* (human cancer cells): A (A Indicates a potency increase of >2-fold of ONC201); IC50 (K562 (CML)): 220 nM; IC50 (MV411 AML cells; Homo sapiens, MV4-11, MV411, 5 nM-5 μM, 72 h, n=3): 200 nM; fold improvement compared to ONC201 in in vitro potency (MV411 AML cells; cell lines of Table 12): up to 20 fold

— patent US11116771B2, “G protein-coupled receptor (GPCR) modulation by imipridones” (Oncoceutics, Inc., priority 2016, dated 2021)
